Counter-ions that a name gives are not always drawn. Like-named read-outs stand apart in the source and are kept apart here.
Assays:
HSF1 = target: T1, HSF1 (Homo sapiens, UniProt Q00613); test: Z74 cell-based reporter assay: heat-induced RLuc expression controlled by endogenous HSF1; settings: for IC50: inhibition of HSF1 activity [RLuc]; for inhibition at 12.5 µM: read-out: Inhibition of HSF1 activity at 12.5 μM IHSF [RLuc] (%); for inhibition at 25 µM: read-out: Inhibition of HSF1 activity at 25 μM IHSF [RLuc] (%)
T1 construct: functionally linked to an hsp70b promoter and therefore controlled by endogenous HSF1; endogenous in cells; host or cells: HeLa cells / HeLa-derived cell line Z74
T1 sequence (Q00613 1-529): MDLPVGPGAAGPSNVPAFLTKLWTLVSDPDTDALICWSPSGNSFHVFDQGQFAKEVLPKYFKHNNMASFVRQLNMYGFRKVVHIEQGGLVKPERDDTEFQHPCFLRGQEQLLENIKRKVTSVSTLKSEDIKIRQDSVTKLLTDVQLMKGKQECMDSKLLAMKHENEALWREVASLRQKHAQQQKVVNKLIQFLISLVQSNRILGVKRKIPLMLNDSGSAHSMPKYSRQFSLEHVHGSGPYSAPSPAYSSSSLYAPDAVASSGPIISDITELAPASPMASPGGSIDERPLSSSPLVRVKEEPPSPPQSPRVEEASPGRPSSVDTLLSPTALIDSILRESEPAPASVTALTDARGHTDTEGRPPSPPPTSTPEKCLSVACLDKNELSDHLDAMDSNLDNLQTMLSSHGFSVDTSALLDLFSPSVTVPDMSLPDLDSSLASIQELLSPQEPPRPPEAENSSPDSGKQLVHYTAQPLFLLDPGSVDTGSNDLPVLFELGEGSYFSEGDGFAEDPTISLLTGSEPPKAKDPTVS
From the text: For screening this sublibrary, a cell-based assay was developed. We opted for a cell-based assay, because a cell-free assay would have had to be a DNA-binding assay. Such an assay would have limited discovery to molecules capable of interfering with the DNA-binding function of HSF1. This was thought to be too narrow a focus, considering that three of the four cavities identified in the HSF1 DNA-binding domain are not near the DNA interaction region. A straightforward cell-based assay, in which a HSF1-responsive gene would be assayed, was considered likely to be over-inclusive. Compounds would be scored as hits that inhibit any factor that is involved in HSF1 activation or prevents HSF1 deactivation. These factors include protein kinases, activators of protein phosphatases, factors affecting HSF1 mRNA stability, HSP90, HDAC6, etc. For developing a more discriminating cell-based assay, advantage was taken of the modular nature of HSF1. […] The cell-based assay developed (see below for the particular format employed) compared transactivation by wild type HSF1 and chimeric HSF1 in cells exposed to an HSF1-activating heat treatment in the presence of a sublibrary compound. A compound was scored as a hit, if it inhibited the activity of wild type HSF1 but not of chimeric HSF1.
The cell-based assay made use of HeLa-derived cell line Z74 that stably contains a gene for chimeric transcription factor LexA-(human) HSF1 under the control of a CMV early promoter, a firefly luciferase (flue) gene driven by a promoter responsive to the latter chimeric transcription factor and a Renilla luciferase (rluc) gene functionally linked to an hsp70b promoter and therefore controlled by endogenous HSF1 (FIG. 1A). As is shown in FIGS. 1B & C, the reporter genes responded similarly to heat dose, i.e., their activation depended on both duration of heat exposure and temperature of the exposure. […] Depletion of HSF1 (and LexA-HSF1) by siRNA supported the notion that this stress regulation is mediated by HSF1 (and LexA-HSF1). Therefore, the Z74 line was well suited for use in a screening assay aimed at discovering molecules that inhibit heat-induced HSF1 activity through interaction with the transcription factor's DNA-binding domain.
The compounds of the afore-mentioned biased sublibrary were screened in cell line Z74 at 12.5 and 25 μM concentrations. Typically, Z74 cultures in 96-well plates were exposed to compound or vehicle for 2 h, heat-treated at 43.0° C. for 30 min, and incubated further for 6 h at 37° C. to allow for accumulation of the luciferases. RLuc and FLuc activities were determined, typically using the Dual-Glo® Luciferase Assay System (Promega Corp., Madison, Wis.), and reading luciferase light counts in a Wallac Microbeta Trilux-1450 Luminometer (PerkinElmer, Waltham, Mass.). IHSF 001 was one of two library compounds that inhibited RLuc expression but not FLuc expression in heat-treated Z74 cells (Table 1; FIG. 2A). Therefore, IHSF 001 is an inhibitor of HSF1 function that specifically acts through the HSF1 DNA-binding domain. […] A corroborating experiment utilized a cell line containing an hsp70b promoter-driven fluc gene. […] IHSF 001 is (E)-ethyl 4-oxo-4-(thiazol-2-ylamino)but-2-enoate. The compound can be obtained from commercial sources (e.g., AKE-PB-90340538, Akos).

HSE DNA-binding activity = target: T2, HSE DNA-binding activity (Homo sapiens, UniProt Q00613); test: EMSA using extracts of heat-treated HeLa cells, in the presence of IHSF; type: biochemical; settings: extracts of HeLa cells heat-treated at 43° C. for 30 min; concentrations as high as about 0.5 mM
T2 construct: functionally linked to an hsp70b promoter and therefore controlled by endogenous HSF1; endogenous in cells; host or cells: HeLa cells / HeLa-derived cell line Z74
T2 sequence (Q00613 1-529): T1 sequence (Q00613 1-529)
Description: Electrophoretic mobility shift assays (EMSA) using a radiolabeled HSE DNA probe were carried out to assess HSF1 DNA-binding activity in extracts of heat-treated (43° C./30 min) HeLa cells that had been exposed to different concentrations of compounds 058 or 115 (FIG. 3A, top panels). […] HSF1 degradation correlated well with the observed decrease in DNA-binding activity. Therefore, HSF1 degradation provides a sufficient explanation for the reduced HSE DNA-binding activity in cells treated with IHSF 058. […] EMSA were also carried out using extracts of HeLa cells that had been heat-treated at 43° C. for 30 min.

[1] = Z74 cells, 12.5 μM IHSF, negative values marked *: compound enhanced rLuc activity
[2] = Z74 cells, 25 μM IHSF, 2 h exposure, 43° C. 30 min, 6 h at 37° C.

`CCOC(=O)/C=C/C(=O)Nc1nc(C)cs1` [IHSF 011, (E)-3-(4-Methyl-thiazol-2-ylcarbamoyl)-acrylic acid ethyl ester] gave an IC50 (HSF1; Z74 cells) of 7 µM, an inhibition at 12.5 µM (HSF1; [1]) of 69% and an inhibition at 25 µM (HSF1; [2]) of 83%. For the same molecule, the “HSE DNA-binding activity (EMSA) in the presence of IHSF” value (“HSE DNA-binding activity (EMSA)” for short) (HSE DNA-binding activity) was “no reduction”.
For `CCOC(=O)/C=C/C(=O)Nc1ccnc(-c2ccccc2)c1` [IHSF 049, (E)-3-(2-Phenyl-pyridin-4-ylcarbamoyl)-acrylic acid ethyl ester], the inhibition at 12.5 µM (HSF1; [1]) was 53%, the inhibition at 25 µM (HSF1; [2]) was 85% and the “HSE DNA-binding activity (EMSA)” value (HSE DNA-binding activity) was “no reduction”.
`CCOC(=O)/C=C/C(=O)Nc1ccnc2ccccc12` [IHSF 050, (E)-3-(Quinolin-4-ylcarbamoyl)-acrylic acid ethyl ester] was tested, and the inhibition at 12.5 µM (HSF1; [1]) was 40%, the inhibition at 25 µM (HSF1; [2]) was 61% and the “HSE DNA-binding activity (EMSA)” value (HSE DNA-binding activity) was “no reduction”.
For `CCOC(=O)/C=C/C(=O)Nc1nc(C)c(-c2ccccc2)s1` [IHSF 051, (E)-3-(4-Methyl-5-phenyl-thiazol-2-ylcarbamoyl)-acrylic acid ethyl ester], the IC50 (HSF1; Z74 cells) was 9.6 µM, the inhibition at 12.5 µM (HSF1; [1]) was 72% and the inhibition at 25 µM (HSF1; [2]) was 92%. For the same molecule, the “HSE DNA-binding activity (EMSA)” value (HSE DNA-binding activity) was “no reduction”.
For `CCOC(=O)/C=C/C(=O)Nc1nc(C)c(C)s1` [IHSF 052, (E)-3-(4,5-Dimethyl-thiazol-2-ylcarbamoyl)-acrylic acid ethyl ester], the IC50 (HSF1; Z74 cells) was 7.4 µM, the inhibition at 12.5 µM (HSF1; [1]) was 57% and the inhibition at 25 µM (HSF1; [2]) was 71%. For the same molecule, the “HSE DNA-binding activity (EMSA)” value (HSE DNA-binding activity) was “no reduction”.
For `CCOC(=O)/C=C/C(=O)Nc1ncc(C#N)s1` [IHSF 057, (E)-3-(5-Cyano-thiazol-2-ylcarbamoyl)-acrylic acid ethyl ester], the inhibition at 12.5 µM (HSF1; [1]) was 40%, the inhibition at 25 µM (HSF1; [2]) was 65% and the “HSE DNA-binding activity (EMSA)” value (HSE DNA-binding activity) was “no reduction”.
With `CCOC(=O)/C=C/C(=O)Nc1ccnc(-c2cccc(C)c2)c1` [IHSF 080, (E)-3-(2-m-Tolyl-pyridin-4-ylcarbamoyl)-acrylic acid ethyl ester] the inhibition at 12.5 µM (HSF1; [1]) was 55% and the inhibition at 25 µM (HSF1; [2]) was 71%.
For `CCOC(=O)/C=C/C(=O)Nc1ccnc(-c2ccc(C)cc2)c1` [IHSF 081, (E)-3-(2-p-Tolyl-pyridin-4-ylcarbamoyl)-acrylic acid ethyl ester formic acid salt], the inhibition at 12.5 µM (HSF1) was 42% and the inhibition at 25 µM (HSF1) was 65%.
With `CCOC(=O)/C=C/C(=O)Nc1cc(C)nc(C)c1` [IHSF 082, (E)-3-(2,6-Dimethyl-pyridin-4-ylcarbamoyl)-acrylic acid ethyl ester] the inhibition at 12.5 µM (HSF1; [1]) was 58% and the inhibition at 25 µM (HSF1; [2]) was 91%.
`CCOC(=O)/C=C/C(=O)Nc1ccncc1C` [IHSF 083, (E)-3-(3-Methyl-pyridin-4-ylcarbamoyl)-acrylic acid ethyl ester] gave an inhibition at 12.5 µM (HSF1; [1]) of 24% and an inhibition at 25 µM (HSF1; [2]) of 34%.
For `CCOC(=O)/C=C/C(=O)Nc1ccnc(-c2cccnc2)c1` [IHSF 086, (E)-3-([2,3′]Bipyridmyl-4-ylcarbamoyl)-acrylic acid ethyl ester], the inhibition at 12.5 µM (HSF1; [1]) was 47% and the inhibition at 25 µM (HSF1; [2]) was 78%.
`O=C(/C=C/c1ncccn1)Nc1nccs1` [IHSF 088, (E)-3-(Pyrimidin-2-yl)-N-(thiazol-2-yl)acrylamide] showed an inhibition at 12.5 µM (HSF1; [1]) of 25% and an inhibition at 25 µM (HSF1; [2]) of 31%.
`O=C(/C=C/c1ncno1)Nc1nccs1` [IHSF 089, (E)-3-(1,2,4-Oxadiazol-5-yl)-N-(thiazol-2-yl)acrylamide] was tested, and the IC50 (HSF1; Z74 cells) was 17.9 µM, the inhibition at 12.5 µM (HSF1; [1]) was 41% and the inhibition at 25 µM (HSF1; [2]) was 61%.
`O=C(/C=C/C1=NCCCO1)Nc1nccs1` [IHSF 090, (E)-3-(5,6-Dihydro-4H-[1,3]oxazin-2-yl)-N-thiazol-2-yl-acrylamide] was tested, and the IC50 (HSF1; Z74 cells) was 5.4 µM, the inhibition at 12.5 µM (HSF1; [1]) was 78% and the inhibition at 25 µM (HSF1; [2]) was 98%.
With `O=C(/C=C/c1nnco1)Nc1nccs1` [IHSF 091, (E)-3-(1,3,4-Oxadiazol-2-yl)-N-(thiazol-2-yl)acrylamide] the IC50 (HSF1; Z74 cells) was over 25 µM, the inhibition at 12.5 µM (HSF1; [1]) was 22% and the inhibition at 25 µM (HSF1; [2]) was 27%.
`O=C(/C=C/C1=NCCO1)Nc1nccs1` [IHSF 092, (E)-3-(4,5-Dihydro-oxazol-2-yl)-N-thiazol-2-yl-acrylamide] was tested, and the IC50 (HSF1; Z74 cells) was 4.7 µM, the inhibition at 12.5 µM (HSF1; [1]) was 90% and the inhibition at 25 µM (HSF1; [2]) was 99%.
`CCCC(=O)/C=C/C(=O)Nc1nccs1` [IHSF 095, (E)-4-Oxo-N-(thiazol-2-yl)hept-2-enamide] showed an inhibition at 12.5 µM (HSF1; [1]) of 6% and an inhibition at 25 µM (HSF1; [2]) of 44%.
`CCOC(=O)/C=C/C(=O)N(CCc1ccncc1)c1nccs1` [IHSF 099, (E)-3-[(2-Pyridin-4-yl-ethyl)-thiazol-2-yl-carbamoyl]-acrylic acid ethyl ester] was tested, and the IC50 (HSF1; Z74 cells) was 18 µM, the inhibition at 12.5 µM (HSF1; [1]) was 17% and the inhibition at 25 µM (HSF1; [2]) was 95%.
Molecule `CCOC(=O)/C=C/C(=O)N(CCN1CCOCC1)c1nccs1` [IHSF 101, (E)-3-[(2-Morpholin-4-yl-ethyl)-thiazol-2-yl-carbamoyl]-acrylic acid ethyl ester] has an IC50 (HSF1; Z74 cells) of over 25 µM, an inhibition at 12.5 µM (HSF1; [1]) of -30% and an inhibition at 25 µM (HSF1; [2]) of 48%.
For `CCOC(=O)/C=C/C(=O)Nc1nc(C(=O)OC)c(-c2ccccc2)s1` [IHSF 105, 2-((E)-3 -Ethoxycarbonyl-acryloylamino)-5-phenyl-thiazole-4-carboxylic acid methyl ester], the IC50 (HSF1; Z74 cells) was 10.8 µM, the inhibition at 12.5 µM (HSF1; [1]) was 69% and the inhibition at 25 µM (HSF1; [2]) was 96%.
`CCOC(=O)/C=C/C(=O)Nc1nc(CC)c(-c2ccccc2)s1` [IHSF 107, (E)-3-(4-Ethyl-5-phenyl-thiazol-2-ylcarbamoyl)-acrylic acid ethyl ester] showed an IC50 (HSF1; Z74 cells) of 10.6 µM, an inhibition at 12.5 µM (HSF1; [1]) of 62% and an inhibition at 25 µM (HSF1; [2]) of 92%.
Work on `CCOC(=O)/C=C/C(=O)N(CCc1cn(C)cn1)c1nccs1` [IHSF 108] yielded an IC50 (HSF1; Z74 cells) of 19.6 µM, an inhibition at 12.5 µM (HSF1; [1]) of -6% and an inhibition at 25 µM (HSF1; [2]) of 89%.
`CCOC(=O)/C=C/C(=O)Nc1nc(C(N)=O)c(-c2ccccc2)s1` [IHSF 109, (E)-3-(4-Carbamoyl-5-phenyl-thiazol-2-ylcarbamoyl)-acrylic acid ethyl ester] showed an IC50 (HSF1; Z74 cells) of 11.2 µM, an inhibition at 12.5 µM (HSF1; [1]) of 53% and an inhibition at 25 µM (HSF1; [2]) of 88%.
`CCOC(=O)/C=C/C(=O)N(CCc1ccccn1)c1nccs1` [IHSF 112, (E)-3-[(2-Pyridin-2-yl-ethyl)-thiazol-2-yl-carbamoyl]-acrylic acid ethyl ester] was tested, and the IC50 (HSF1; Z74 cells) was over 25 µM, the inhibition at 12.5 µM (HSF1; [1]) was 13% and the inhibition at 25 µM (HSF1; [2]) was 26%.
